# Source: publication PMC8123395, “Aggregation and Its Influence on the Bioactivities of a Novel Antimicrobial Peptide, Temporin-PF, and Its Analogues” (International Journal of Molecular Sciences, 2021)
# Where two headings read alike, the source gives them in different places. Non-standard residues stand in square brackets, D forms with d. Residues, ends and D or L forms follow the SMILES beside them. No end group written: not given here.
# Experiments:
# [1] = tested on: Enterococcus faecalis (NCTC 12697); type: cell-based
# Procedure: (§1) The minimum inhibitory concentration (MIC) and minimum bactericidal concentration (MBC) of peptides against the selected microorganisms were determined using the broth-dilution method, as described in the previous study. […] were used in the assay: Gram-positive bacteria Staphylococcus aureus (NCTC 10788), Enterococcus faecalis (NCTC 12697), and methicillin-resistant S. aureus (MRSA) (NCTC 12493); Gram-negative bacteria Escherichia coli (NCTC 10418), Pseudomonas aeruginosa (ATCC 27853), and Klebsiella pneumoniae (ATCC 43816). All the strains were cultured in Mueller Hinton Broth (MHB), pH 7.4 (Oxiod, Basingstoke, UK). Each peptide was tested at the final concentration from 128 to 1 µM in two-fold dilution. Norfloxacin was applied as the positive control.
# [2] = tested on: Escherichia coli (NCTC 10418); type: cell-based
# Procedure: as §1
# [3] = tested on: Klebsiella pneumoniae (ATCC 43816); type: cell-based
# Procedure: as §1
# [4] = tested on: Pseudomonas aeruginosa (ATCC 27853); type: cell-based
# Procedure: as §1
# [5] = tested on: Staphylococcus aureus (NCTC 10788); type: cell-based
# Procedure: as §1
# [6] = tested on: methicillin-resistant S. aureus (MRSA) (NCTC 12493); type: cell-based
# Procedure: as §1
# MRSA biofilm = type: cell-based; settings: 24 h
# Procedure: (§2) MBIC and MBEC assays were performed as previously described with minor modifications. For the MBIC assay, a suspension of broth diluted bacteria culture (5 × 10^5 CFU/mL) was incubated with the peptide solutions at 37 °C for 24 h. For MBEC assay, 100 μL inoculum culture was seeded to a 96-well-flat-bottom plate and incubated at 37 °C for 48 h to obtain the mature biofilm. Afterwards, the plate was washed by sterile phosphate-buffered saline (PBS; Sigma-Aldrich, Gillingham, UK) twice and treated with a series peptide solution at 37 °C for 24 h. Then, all the plates were washed with PBS and stained by 100 μL 0.1% crystal violet solution (Sigma-Aldrich, Gillingham, UK), and further dissolved by 30% acetic acid (Sigma-Aldrich, Gillingham, UK). The absorbance of each well was recorded by Synergy HT plate reader (Biotech, Minneapolis, MN, USA) at 595 nm.
# MRSA mature biofilm = type: cell-based
# Procedure: as §2
# S. aureus biofilm = type: cell-based; settings: 24 h
# Procedure: as §2
# S. aureus mature biofilm = type: cell-based
# Procedure: as §2
# [7] = Circular dichroism, helix content by BeStSel; type: physicochemical; settings: CD, room temperature, BeStSel analysis; for Helix Content % DPPC: 50 μM peptide in 3 mM DPPC SUVs (erythrocyte membrane mimic); for Helix Content % DPPG/DPPE: 50 μM peptide in 3 mM DPPG/DPPE (88:12) SUVs (bacterial membrane mimic); for Helix Content % 50% TFE: 50 μM peptide in 50% TFE/10 mM NH4AC, three scans averaged
# Procedure: Figure 8 CD spectra of TPF and the analogs (50 μM) prepared in 10 mM NH4AC, 50% TFE/10 mM NH4AC, 3 mM DPPG/DPPE (88:12) SUVs, and 3 mM DPPC SUVs. The spectra were averaged over three consecutive scans, and the solvent CD signal was subtracted.
# The determination of the secondary structure of peptides was conducted using a JASCO J-815 CD Spectropolarimeter (JASCO Inc., Tokyo, Japan) as described in the previous study. Then, 50 μM of each peptide sample was prepared in the aqueous 10 mM ammonium acetate (NH4Ac; Sigma-Aldrich, Gillingham, UK) buffer, 50% (v/v) 2,2,2-trifluoroethanol (TFE; Sigma-Aldrich, Gillingham, UK), and 3 mM DPPG:DPPE (88:12) and DPPC small unilamellar liposomes/vesicles (SUVs) that were used to mimic the bacterial and mammalian erythrocyte cell membranes, respectively. The liposome was hydrated in deionized water and then sonicated for 15 min with an interval 30 s in an ice bath for generating SUVs. Samples were loaded in a 1-mm thickness quartz cuvette and analyzed at room temperature with the following parameters: scan range of 190–250 nm, scanning speed of […], 1 nm bandwidth, and 0.5 nm data pitch. The spectra were obtained by averaging data from three scans. The CD spectra were analyzed by BeStSel (http://bestsel.elte.hu/index.php, accessed on 16 May 2020) for the determination of secondary structure content.
# [8] = Observation of aggregation: turbidity (absorbance at 600 nm) in media and salt solutions; type: physicochemical; settings: absorbance 600 nm, three replicates
# Procedure: Figure 3 The absorbance of TPF and the analogs prepared in (a) a series of culture media, including PBS, RPMI1640, RPMI1640 with 10% FBS, TSB, and MHB; 0.25, 0.5, and 1 M of (b) Na2HPO4, (c) CaCl2, and (d) MgCl2 solutions. Peptide solutions were prepared from 1 mg/mL, and the wavelength was set as 600 nm. The error bar represents the standard deviation (SD) with three replicates.
# The method was followed the previous study with modifications. The purified peptides were prepared at 10 mg/mL in water and subsequently diluted with different solutions, including PBS, RPMI1640, RPMI1640 with 10% FBS, TSB, MHB, Na2HPO4 (0.25, 0.5, and 1 M), CaCl2 (0.25, 0.5, and 1 M), and MgCl2 (0.25, 0.5, and 1 M), in a 96-well plate to achieve the final concentration of 1 mg/mL. The turbidity of each well was detected using the absorbance at 600 nm by a plate reader. The peptides dissolved in water were applied as negative control.
# [9] = RP-HPLC retention order of mixed peptides (overall hydrophobicity); type: physicochemical; settings: peptides mixed in equal ratio and subjected to RP-HPLC; Supplementary Figure S4
# Procedure: All peptides were chemically synthesized and purified by RP-HPLC. They were further mixed with an equal ratio and subjected to RP-HPLC. […] Subsequently, all peptides (1 mg/mL) were dissolved in a series of widely used culture media (Figure 2).
# N-terminal Phe of temporin was believed to participate in the packaging of “head-tail” oligomerization. […] Furthermore, Trp/D-Trp substitution carried out on des-Phe1 TPF enhanced the peptide aggregation. […] It may be related to the decrease of the helical content; however, it could also be caused by the change of aggregation effects. Previous studies have shown that AMPs with strong antimicrobial activity are present as monomers in an aqueous solution and aggregate on the membrane to disrupt the bacterial cell membrane. […] It has been proposed that some aggregation effects of AMPs could limit the interaction of the peptide with its target, thereby reducing the antibacterial efficacy. In the previous study, the zipper-like motif is associated with the bioactivities as well as the assembly in the LPS micelles, which was considered to arise from hydrophobic interactions mainly. However, the overall hydrophobicity of Trp/D-Trp substituted analogs is less than that of des-Phe1 TPF, as estimated by RP-HPLC analysis. We hypothesize that the enhanced assembly seen for Trp/D-Trp substituted analogs might be related to the increased content of aromatic residues, because it could promote the strength of π stacking or cation-π type interaction. However, the true relation has not been fully clarified so far, and the capability of aromatic moieties to promote aggregation could also be affected by the hydrophobicity, position, and the neighboring side chains in their three-dimensional conformation.
# horse erythrocytes = experiment: Hemolysis test; type: cell-based; settings: 2% horse erythrocyte suspension; peptide 128 to 1 µM; comparison among the four peptides
# Procedure: Figure 9 Hemolytic activity of TPF and the analog against horse red blood cell. The percentage of hemolysis was calculated with the absorbance at 570 nm, compared with PBS-treated red blood cells. The error bar represents SD of five replicates.
# The hemolytic activity of each peptide was measured by incubating a range of final peptide concentrations from 128 to 1 µM in a two-fold dilution in a 2% suspension of the horse erythrocytes, as described in a previous study. The absorbance of hemoglobin released from red blood cells was detected at 570 nm. The percentage of hemolysis was calculated by the comparison to the 1% Triton X-100 treated red blood cells.
# [10] = Preliminary observation of solubility / hydrogel formation in PBS; type: physicochemical; settings: peptide 10 mg/mL in PBS
# Procedure: After the identification of TPF, the chemical synthesis of TPF was performed successfully. […] Therefore, we synthesized the des-Phe1 TPF to investigate the correlation between oligomerize effect and bioactivities. […] Therefore, we further substituted Phe with Trp and D-Trp to reveal the relationship between the oligomerization effect and the zipper motif and the influence on bioactivities (Table 1). The correct synthesis of peptides had been checked by MALDI-TOF mass spectrometry (Supplementary Figure S6) and synthetic yields were calculated (Supplementary Figure S7).
# [11] = E. faecalis NCTC 12697, broth dilution in MHB pH 7.4, peptide 128 to 1 µM
# [12] = E. coli NCTC 10418, broth dilution in MHB pH 7.4, peptide 128 to 1 µM
# [13] = K. pneumoniae ATCC 43816, broth dilution in MHB pH 7.4, peptide 128 to 1 µM
# [14] = P. aeruginosa ATCC 27853, broth dilution in MHB pH 7.4, peptide 128 to 1 µM
# [15] = S. aureus NCTC 10788, broth dilution in MHB pH 7.4, peptide 128 to 1 µM two-fold dilution
# [16] = MRSA NCTC 12493, broth dilution in MHB pH 7.4, peptide 128 to 1 µM
Molecule,"MBC ([1]; NCTC 12697, pH 7.4) [µM]","MIC ([1]; NCTC 12697, pH 7.4) [µM]","MBC ([2]; NCTC 10418, pH 7.4) [µM]","MIC ([2]; NCTC 10418, pH 7.4) [µM]","MBC ([3]; ATCC 43816, pH 7.4) [µM]","MIC ([3]; ATCC 43816, pH 7.4) [µM]","MBC ([4]; ATCC 27853, pH 7.4) [µM]","MIC ([4]; ATCC 27853, pH 7.4) [µM]","MBC ([5]; NCTC 10788, pH 7.4) [µM]","MIC ([5]; NCTC 10788, pH 7.4) [µM]","MBC ([6]; NCTC 12493, pH 7.4) [µM]","MIC ([6]; NCTC 12493, pH 7.4) [µM]",MBIC (MRSA biofilm; biofilm),"MBEC (MRSA mature biofilm; mature biofilm, 48 h)",MBIC (S. aureus biofilm; biofilm),"MBEC (S. aureus mature biofilm; mature biofilm, 48 h)",Helix Content % DPPC [7] [%],Helix Content % DPPG/DPPE [7] [%],Helix Content % 50% TFE [7] [%],"order of retention time (RP-HPLC, used as estimate of overall hydrophobicity) [9]",further results
LPLIAGLWGKIW-NH2 [W-des-Phe1 TPF],128,128,128,128,128,128,> 128,> 128,32,32,128,128,128/>128 µM,128/>128 µM,64 µM,> 128 µM,10.1,26.9,27.7,TPF> des-Phe1 TPF> W-des-Phe1 TPF> dW-des-Phe1 TPF,"turbidity in culture media ([8]; peptide 1 mg/mL diluted from 10 mg/mL in water, PBS, RPMI1640, RPMI1640 with 10% FBS, TSB, MHB): increased outstandingly; salting-out effect in Na2HPO4 solutions ([8]; peptide 1 mg/mL, 0.25, 0.5 and 1 M Na2HPO4): strongest salting-out effect"
FLPLIAGLFGKIF-NH2 [TPF],,,,,,,,,,,,,,,,,,,,,"MBC [1, 11]: 16 µM; MIC [1, 11]: 16 µM; MBC [2, 12]: > 128 µM; MIC [2, 12]: > 128 µM; MBC [3, 13]: > 128 µM; MIC [3, 13]: > 128 µM; MBC [4, 14]: > 128 µM; MIC [4, 14]: > 128 µM; MBC [5, 15]: 32 µM; MIC [5, 15]: 4 µM; MBC [6, 16]: 4 µM; MIC [6, 16]: 4 µM; MBIC (MRSA biofilm; MRSA, 5 × 10^5 CFU/mL with peptide, 37 °C, crystal violet, absorbance 595 nm): 4 µM; MBEC (MRSA mature biofilm; MRSA, 48 h mature biofilm treated with peptide 37 °C, 24 h, crystal violet, absorbance 595 nm): 16 µM; MBIC (S. aureus biofilm; S. aureus, 5 × 10^5 CFU/mL with peptide, 37 °C, crystal violet, absorbance 595 nm): 4 µM; MBEC (S. aureus mature biofilm; S. aureus, 48 h mature biofilm treated with peptide 37 °C, 24 h, crystal violet, absorbance 595 nm): 32 µM; hemolytic activity (in words) (horse erythrocytes): strongest hemhemolytic activity; solubility in PBS [10]: significantly decreased"
CC[C@H](C)[C@H](NC(=O)[C@H](CC(C)C)NC(=O)[C@@H]1CCCN1C(=O)[C@@H](N)CC(C)C)C(=O)N[C@@H](C)C(=O)NCC(=O)N[C@@H](CC(C)C)C(=O)N[C@H](Cc1c[nH]c2ccccc12)C(=O)NCC(=O)N[C@@H](CCCCN)C(=O)N[C@H](C(=O)N[C@H](Cc1c[nH]c2ccccc12)C(N)=O)[C@@H](C)CC [dW-des-Phe1 TPF] (H-LPLIAGL[dW]GKI[dW]-NH2; N-terminus assumed),> 128,> 128,> 128,> 128,> 128,> 128,> 128,> 128,64,64,> 128,> 128,>128/>128 µM,>128/>128 µM,>128/>128 µM,>128/>128 µM,8.3,0.5,3.0,TPF> des-Phe1 TPF> W-des-Phe1 TPF> dW-des-Phe1 TPF,
